The species entered for data set [1] is Homo sapiens. Kind of data set: Selectivity for human cdk5/[…] over human cdk2/cyclin E.
A short description of data set [2]: Cytotoxicity against VeroC1008 cells at 6.25 to 50 ug/ml by neutral red uptake assay. In kind it is cell-based. The following applies: chlorocebus sabaeus, vero.
The target in data set [3] is Cyclin-dependent kinase 5/CDK5 activator 1 (Homo sapiens, UniProt Q00535). Kind of data set: Inhibition of human cdk5/p25 by SPA. In kind it is protein-complex assay.
In data set [4] the target is Cyclin-dependent kinase 2/cyclin E (Homo sapiens, UniProt P24941). Put plainly: Inhibition of human cdk2/cyclin E by SPA. In kind it is protein-complex assay.

Cyclin-dependent kinase 5/CDK5 activator 1, sequence (Q00535 whole entry): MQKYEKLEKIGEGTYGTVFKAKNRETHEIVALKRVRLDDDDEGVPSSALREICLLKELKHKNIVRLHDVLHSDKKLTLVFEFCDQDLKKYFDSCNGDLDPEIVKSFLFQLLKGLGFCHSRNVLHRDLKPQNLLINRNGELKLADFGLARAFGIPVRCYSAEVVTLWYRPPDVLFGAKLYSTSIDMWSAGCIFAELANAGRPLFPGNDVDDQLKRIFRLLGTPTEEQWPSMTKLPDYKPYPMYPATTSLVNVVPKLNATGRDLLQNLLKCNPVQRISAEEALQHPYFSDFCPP
Cyclin-dependent kinase 5/CDK5 activator 1, sequence (Q15078 whole entry, further chain): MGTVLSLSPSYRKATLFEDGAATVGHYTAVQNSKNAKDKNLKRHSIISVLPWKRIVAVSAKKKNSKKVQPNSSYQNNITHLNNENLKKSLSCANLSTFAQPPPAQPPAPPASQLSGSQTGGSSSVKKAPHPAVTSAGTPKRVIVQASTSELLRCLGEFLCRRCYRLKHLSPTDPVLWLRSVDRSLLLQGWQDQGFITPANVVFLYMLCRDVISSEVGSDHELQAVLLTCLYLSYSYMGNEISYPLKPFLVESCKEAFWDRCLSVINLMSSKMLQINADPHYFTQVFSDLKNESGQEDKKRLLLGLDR

By IC50 is commonly meant the concentration that gives 50% inhibition. A high value points to weaker potency in that assay. For the compound `CC(=O)Nc1nc(Cc2nnc(SCC#N)n2NC(=O)c2ccc(Cl)cc2)cs1`, the Ratio IC50 in data set [1] is 18.3. Also, in data set [2], the Activity result is “Non-toxic”. Moreover, the IC50 amounted to 62 nM in data set [3] and 1140 nM in data set [4].

With `O=C(CSc1nnc(Cc2csc(NC(=O)CCl)n2)n1NC(=O)c1ccc(Cl)cc1)N/N=C/c1ccccc1`, the Ratio IC50 in data set [1] was 1.2. Besides, in data set [2], the Activity result was “Non-toxic”. Also, the values for the half-inhibitory concentration (IC50) in data set [3] and in data set [4] were 42 nM and 51 nM, respectively.

Consider `NNC(=O)CSc1nnc(Cc2csc(NCCC(=O)O)n2)n1NC(=O)c1ccc(Cl)cc1`, for which, in data set [1], the Ratio IC50 came out at 99. The Activity result in data set [2] is reported as “Non-toxic”. The IC50 in data set [3] came to 64 nM; in data set [4], 6340 nM.

As for `CC(=O)Nc1nc(Cc2nnc(SCC(=O)NN)n2NC(=O)c2ccc(Cl)cc2)cs1`, in data set [1], the Ratio IC50 is 8.6. In data set [2], the Activity result was “Non-toxic”. The IC50 in data set [3] came to 72 nM; in data set [4], 624 nM.

In the case of `CC(=O)Nc1nc(Cc2nnc(S)n2N)cs1`, the Ratio IC50 in data set [1] was 1. In data set [2], the Activity result is “Non-toxic”. For the same compound, the IC50 in data set [3] was found to be 48 nM; in data set [4] it was 50 nM.

As for `N#CCSc1nnc(Cc2csc(NC(=O)c3ccccc3)n2)n1NC(=O)c1ccc(Cl)cc1`, the Ratio IC50 in data set [1] was 21. In addition, the Activity result in data set [2] is given as “Non-toxic”. Further, the results for the half-inhibitory concentration (IC50) in data set [3] and in data set [4] were 64 nM and 1340 nM, respectively.

Turning to `O=C(CSc1nnc(Cc2csc(NC(=O)c3ccccc3)n2)n1NC(=O)c1ccccc1)NNC(=O)c1ccccc1`, in data set [2], the Activity result is “Non-toxic”. Further, in data set [3], the IC50 was 463 nM.

With `O=C(CCl)NNC(=O)CSc1nnc(Cc2csc(NC(=O)CCl)n2)n1NC(=O)c1ccc(Cl)cc1`, the Activity entry in data set [2] was “Non-toxic”. In data set [3], this compound yielded an IC50 of 224 nM.

As to `CC(=O)NNC(=O)CSc1nnc(Cc2csc(NC(C)=O)n2)n1NC(=O)c1ccc(Cl)cc1`, the Activity result in data set [2] was “Non-toxic”. The IC50 in data set [3] was 641 nM.

In the case of `CC(=O)NNC(=O)CSc1nnc(Cc2csc(NC(=O)CCl)n2)n1NC(=O)c1ccc(Cl)cc1`, in data set [2], the Activity entry was “Non-toxic”. The same compound showed an IC50 in data set [3] of 464 nM.

Turning to `O=C(CCl)Nc1nc(Cc2n[nH]c(=S)n2NC(=O)c2ccccc2)cs1`, the Activity entry in data set [2] is given as “Non-toxic”. This compound also displayed an IC50 in data set [3] of 761 nM.

For `NNC(=O)CSc1nnc(Cc2csc(NC(=O)CCl)n2)n1NC(=O)c1ccc(Cl)cc1`, the Ratio IC50 in data set [1] was determined as 20. Besides, the Activity entry in data set [2] is “Non-toxic”. Besides, the values for the IC50 in data set [3] and in data set [4] were 44 nM and 890 nM, respectively.

`COC(=O)CSc1nnc(Cc2csc(NC(=O)c3ccccc3)n2)n1NC(=O)c1ccc(Cl)cc1`: the Activity entry in data set [2] is given as “Non-toxic”. Further, the IC50 in data set [3] was found to be 290 nM.

Take `O=C(O)CCNc1nc(Cc2nnc(SCC(=O)NNC(=O)CCl)n2NC(=O)c2ccc(Cl)cc2)cs1`: the Activity result in data set [2] is “Non-toxic”. This compound also yielded an IC50 in data set [3] of 180 nM.

As for `CC(=O)NNC(=O)CSc1nnc(Cc2csc(NC(C)=O)n2)n1NC(=O)c1ccccc1`, the Activity entry in data set [2] is “Non-toxic”. Moreover, inhibition in data set [3] was half-maximal at 542 nM (IC50).

Turning to `O=C(CCl)Nc1nc(Cc2nnc(SCSc3nnc(Cc4csc(NC(=O)CCl)n4)n3NC(=O)c3ccccc3)n2NC(=O)c2ccccc2)cs1`, in data set [2], the Activity entry is “Non-toxic”. The compound further came in with an IC50 in data set [3] of 674 nM.

On to `NNC(=O)CSc1nnc(Cc2csc(NCCC(=O)O)n2)n1NC(=O)c1ccccc1`, for which the Activity result in data set [2] is reported as “Non-toxic”. In addition, the midpoint of inhibition in data set [3], the IC50, lay at 465 nM.

Take `COC(=O)CSc1nnc(Cc2csc(NC(=O)CCl)n2)n1NC(=O)c1ccc(Cl)cc1`: the Activity result in data set [2] is “Non-toxic”. Besides, half-maximal inhibition in data set [3] (IC50) required 440 nM.

On to `CC(=O)Nc1nc(Cc2nnc(SCSc3nnc(Cc4csc(NC(C)=O)n4)n3NC(C)=O)n2NC(C)=O)cs1`, for which the Activity result in data set [2] is reported as “Non-toxic”. In data set [3], this compound gave an IC50 of 847 nM.

For the compound `CC(=O)Nc1nc(Cc2nnc(SCC(=O)N/N=C/c3ccccc3)n2NC(=O)c2ccc(Cl)cc2)cs1`, in data set [1], the Ratio IC50 amounted to 17. Also, the Activity result in data set [2] is listed as “Non-toxic”. In addition, the figures for the IC50 in data set [3] and in data set [4] were 30 nM and 512 nM, respectively.

Regarding `CC(=O)Nc1nc(Cc2nnc(SCC(=O)NNC(=O)c3ccccc3)n2NC(=O)c2ccc(Cl)cc2)cs1`, the Activity entry in data set [2] was “Non-toxic”. The compound also yielded an IC50 in data set [3] of 534 nM.

Consider `Nn1c(CSc2nnc(Cc3csc(NCCC(=O)O)n3)n2NC(=O)c2ccc(Cl)cc2)n[nH]c1=S`, for which the Activity result in data set [2] is recorded as “Non-toxic”. Moreover, the IC50 in data set [3] stood at 6650 nM.

Turning to `CC(=O)Nn1c(Cc2csc(NC(=O)c3ccccc3)n2)nnc1SCC(=O)N/N=C/c1ccccc1`, the Activity entry in data set [2] is “Non-toxic”. In data set [3], this compound showed an IC50 of 467 nM.

With `COC(=O)CSc1nnc(Cc2csc(NCCC(=O)O)n2)n1NC(C)=O`, the Activity entry in data set [2] was “Non-toxic”. In data set [3], this compound returned an IC50 of 746 nM.

Consider `CC(=O)Nc1nc(Cc2nnc(SCC(=O)N/N=C/c3ccccc3)n2NC(C)=O)cs1`, for which the Activity entry in data set [2] is listed as “Non-toxic”. Further, the IC50 in data set [3] came out at 463 nM.

In the case of `CC(=O)Nn1c(Cc2csc(NCCC(=O)O)n2)nnc1SCC(=O)NN`, in data set [2], the Activity result is reported as “Non-toxic”. This compound also yielded an IC50 in data set [3] of 943 nM.

Consider `CC(=O)Nc1nc(Cc2n[nH]c(=S)n2NC(C)=O)cs1`, for which, in data set [2], the Activity entry was “Non-toxic”. Half-maximal inhibition in data set [3] (IC50) was put at 598 nM.

Regarding `CC(=O)Nn1c(Cc2csc(NC(=O)c3ccccc3)n2)nnc1SCC#N`, the Activity result in data set [2] is “Non-toxic”. This compound also gave an IC50 in data set [3] of 574 nM.

With `N#CCSc1nnc(Cc2csc(NCCC(=O)O)n2)n1NC(=O)c1ccccc1`, in data set [2], the Activity entry was “Non-toxic”. The IC50 in data set [3] is 487 nM.

Take `CC(=O)NNC(=O)CSc1nnc(Cc2csc(NC(=O)c3ccccc3)n2)n1NC(=O)c1ccc(Cl)cc1`: the Activity entry in data set [2] is listed as “Non-toxic”. For the same compound, the IC50 in data set [3] came out at 340 nM.

On to `CC(=O)NNC(=O)CSc1nnc(Cc2csc(NC(=O)CCl)n2)n1NC(C)=O`, for which, in data set [2], the Activity result is “Non-toxic”. Also, it took 354 nM to reach half-maximal inhibition in data set [3] (IC50).

For `NNC(=O)CSc1nnc(Cc2csc(NC(=O)c3ccccc3)n2)n1NC(=O)c1ccc(Cl)cc1`, in data set [1], the Ratio IC50 was found to be 13.8. The Activity entry in data set [2] is given as “Non-toxic”. The IC50 worked out at 34 nM in data set [3] and 468 nM in data set [4].

Consider `CC(=O)NNC(=O)CSc1nnc(Cc2csc(NCCC(=O)O)n2)n1NC(C)=O`, for which, in data set [2], the Activity result is reported as “Non-toxic”. Also, in data set [3], inhibition was half-maximal at 463 nM (IC50).

For `COC(=O)CSc1nnc(Cc2csc(NC(=O)CCl)n2)n1NC(C)=O`, the Activity entry in data set [2] is reported as “Non-toxic”. Besides, in data set [3], the midpoint of inhibition, the IC50, lay at 695 nM.

On to `CC(=O)Nc1nc(Cc2nnc(SCC#N)n2NC(C)=O)cs1`, for which the Activity entry in data set [2] is on record as “Non-toxic”. The compound also registered an IC50 in data set [3] of 463 nM.

On to `Nn1c(Cc2csc(NC(=O)c3ccccc3)n2)n[nH]c1=S`, for which the Activity entry in data set [2] is given as “Non-toxic”. The same compound showed an IC50 in data set [3] of 630 nM.

With `CC(=O)Nc1nc(Cc2nnc(SCC(=O)NN)n2NC(C)=O)cs1`, the Activity result in data set [2] was “Non-toxic”. For the same compound, the IC50 in data set [3] came out at 241 nM.

For `O=C(CSc1nnc(Cc2csc(NC(=O)CCl)n2)n1NC(=O)c1ccccc1)N/N=C/c1ccccc1`, the Activity entry in data set [2] was “Non-toxic”. Also, the 50% inhibitory concentration (IC50) in data set [3] was 467 nM.

`O=C(CSc1nnc(Cc2csc(NC(=O)c3ccccc3)n2)n1NC(=O)c1ccc(Cl)cc1)N/N=C/c1ccccc1`: the Activity result in data set [2] is “Non-toxic”. Besides, the IC50 in data set [3] came to 246 nM.

For the compound `CC(=O)Nc1nc(Cc2nnc(S)n2NC(=O)c2ccc(Cl)cc2)cs1`, the Activity entry in data set [2] was “Non-toxic”. For the same compound, the IC50 in data set [3] is 462 nM.

Source of the values: ChEMBL document CHEMBL1147182, “Clubbed thiazoles by MAOS: a novel approach to cyclin-dependent kinase 5/p25 inhibitors as a potential treatment for Alzheimer's disease” (Bioorg Med Chem, 2007).
